SMILES strings stand for the structures.

The results in this text go back to US20080139624A1, “Oral Dosage Form Comprising Rosiglitazone” (priority 2005, published 2008).

This data set is described as follows: pH dependent solubility. As to conditions: acidic conditions of the stomach (around pH 2) vs near neutral conditions of the lower intestine (around pH 7). Type of data set: physicochemical.

With `CN(CCOc1ccc(CC2SC(=O)NC2=O)cc1)c1ccccn1` (stereo not shown) [Compound A, 5-[4-[2-(N-methyl-N-(2 pyridyl)amino)ethoxy]benzyl]thiazolidine-2,4-dione], the pH dependent solubility result is reported as “marked pH dependent solubility”.
